Key:
NCIH929.1 cells = experiment: NCIH929.1 cell viability assay (CellTiter-Glo, GI50); type: cell-based; conditions: 96 hr
[1] = system: proteins in DL40 tumor lysates; experiment: Global proteomics of ALCL ALK+ DL40 xenograft tumors, mice treated orally with 100 μg/kg; type: in vivo, mouse
Description: NOD SCI mouse bearing ALCL ALK+DL40 xenografts were treated orally with 100 μg/kg of Compound 1. After 1, 4, 24 and 48 hour treatment, biological duplicates of tumoral cells were harvested, washed twice with PBS, and snap frozen in liquid nitrogen. Samples were resuspended in lysis buffer [8 M urea, 50 mM EPPS (pH 8.5), 50 mM NaCl, lx protease inhibitor cocktail] and lysed by sonication. Lysates were centrifuged at maximum speed, reduced for 1 hour at room temperature with 5 mM TCEP, and the cysteine residues were then alkylated with 15 mM iodoacetamide (room temperature, in dark, 30 minutes). Protein content was extracted twice by methanol-chloroform precipitation and subsequent ice-cold acetone washes. Protein pellets were resuspended in 8 M urea, 50 mM EPPS (pH 8.5) buffer and protein concentrations were measured by BCA assay. Samples were then diluted to 4 M urea with 50 mM EPPS (pH 8.5) and digested at 37° C. for 1 hour with endoproteinase Lys-C, at a 1/100 enzyme/protein ratio. The mixtures were then diluted to 1 M urea with 50 mM EPPS (pH 8.5) and trypsin was added at a 1/50 enzyme/protein ratio. The reaction was incubated overnight at 37° C. and stopped by acidification with formic acid 0.5% (v/v). Peptides were loaded on tC18 SepPak solid-phase extraction cartridges and lyophilized.
For peptide labeling, 100 μg of peptides per sample was prepared at […] concentration in 200 mM EPPS (pH 8.5), ACN was added to a final concentration of 30% and then 50 μg of each TMT 10 reagent. After 1 hour incubation at room temperature, reactions were quenched with 0.3% hydroxylamine for 15 minutes and mixed equally. The mixed sample was desalted using the tC18 SepPak solid-phase extraction cartridges, and lyophilized. Dried peptides were resuspended in 5% ACN, 10 mM NH4HCO3 pH 8 and fractionated in a basic pH reversed phase chromatography using a HPLC equipped with a 3.5 μm XBridge Peptide BEH C18 column. 96 fractions were collected, which were consolidated into 24, of which only 12 nonadjacent samples were analyzed. Samples were desalted, dried via vacuum centrifugation and reconstituted in 12 μL of 5% formic for LC-MS/MS analysis.
A third of each sample (4 μL) was separated by reversed phase chromatography using an EASY-Spray C18 column (2 μm particle size, 250 mm length×75 μm ID) mounted in an EASY-nLC 1200 LC pump coupled to an Orbitrap Fusion Lumos Tribid mass spectrometer. Peptides were separated using a 420 min gradient of 2 to 30% acetonitrile at a flow rate of ˜300 nL/min. Each analysis was performed using the multi-notch MS3 (SPS-MS3) scan. For the identification and relative quantification, all RAW files obtained from the mass spectrometer were transformed using SEQUEST-based software. Briefly, mass spectra were searched against the human Uniprot database (February 2016) concatenated with a database composed of all protein sequences in the reversed order as well as known contaminants. In all SEQUEST searches, precursor ion tolerance was set at 25 ppm and product ion tolerance at 0.9 Da, including methionine oxidation (+15.9949 Da) and cysteine carbamidomethylation (+57.0215 Da) as variable modifications. TMT tag (+229.1629 Da) on lysine residues and peptide N-termini were set as static modifications. Peptide-spectrum matches (PSMs) were performed using a linear discriminant analysis and adjusted to a […]. Peptide intensities were quantified by extracting the signal-to-noise ratio and proteins were further collapsed to a final protein-level FDR of 2%. Protein quantification values were exported to Excel, GraphPad Prism 7 or Perseus14 for further analysis.

[2] = system: cutaneous T-cell lymphoma (CTCL) cell lines; experiment: Anti-cancer activity in CTCL cell lines; type: cell-based; conditions: three of four cell lines tested were responsive, read-out: mean IC50 among the responsive lines
IKZF1/3 = experiment: Biomarker assessment in MM and ALCL tumor bearing studies; type: in vivo
IKZF3 = target: T1, IKZF3 (Homo sapiens, UniProt Q96SW2+Q9UKT9); experiment: NCI-H929 xenograft pharmacodynamic and pharmacokinetic study (Example 40); type: in vivo, mice
T1 construct: from tissue; host or cells: NCI-H929 MM xenograft tumours in female NOD SCID mice
Description: A xenograft study was conducted in female NOD SCID mice bearing NCI-H929 MM tumors. Female SCID mice were inoculated subcutaneously in the right flank with 10×10^6 tumors cells in 0.2 mL of PBS supplemented with matrigel (PBS:matrigel=1:1). Tumor volume was measured twice weekly in two dimensions using calipers, and volume was calculated using the formula: (w2×l)/2=mm^3, assuming 1 mg is equivalent to 1 mm^3 of tumor volume.
For the pharmacodynamic and pharmacokinetic portion of this study 3 mice were sacrificed per time point with tumors and plasma harvested, with mice in the vehicle control group being sacrificed 24 post single dose. […] Tumors were then mechanically homogenized, and protein extracted using RIPA buffer (Sigma Aldrich). Protein concentration was quantified using a Pierce™ BCA Protein Assay Kit, samples were reduced, and equal protein amounts were then loaded onto a western blot gel for analysis. […] The intensity of individual bands was measured for data analysis using Image Studio NIR software. Protein expression was quantitated in relation to the reference protein, GAPDH, to control for total protein concentration. […] Data is represented as percent of target present in the vehicle control and normalized for total protein. […]

H929 = experiment: Anti-proliferative activity, 96 hours; conditions: Homo sapiens, NCI-H929, 96 h
[3] = system: NCI-H929 multiple myeloma tumors; experiment: NCI-H929 multiple myeloma xenograft, NOD SCID mice (Example 13); type: in vivo
Description: Compound 1 efficacy in two multiple myeloma cell lines (NC-H929) and (RPMI-8226) was evaluated at four different doses: 3 μg/kg, 10 μg/kg, 30 μg/kg, and 100 μg/kg. Compound 1 was administered QD (every day) orally (PO). […]
For the NCI-H929 cells, the xenograft study was conducted in female NOD SCID mice bearing NCI-H929 multiple myeloma tumors.
Statistical analysis was performed using two-way analysis of variance (ANOVA). Data are expressed as MTV±SEM.

T1 sequence (Q9UKT9 whole entry): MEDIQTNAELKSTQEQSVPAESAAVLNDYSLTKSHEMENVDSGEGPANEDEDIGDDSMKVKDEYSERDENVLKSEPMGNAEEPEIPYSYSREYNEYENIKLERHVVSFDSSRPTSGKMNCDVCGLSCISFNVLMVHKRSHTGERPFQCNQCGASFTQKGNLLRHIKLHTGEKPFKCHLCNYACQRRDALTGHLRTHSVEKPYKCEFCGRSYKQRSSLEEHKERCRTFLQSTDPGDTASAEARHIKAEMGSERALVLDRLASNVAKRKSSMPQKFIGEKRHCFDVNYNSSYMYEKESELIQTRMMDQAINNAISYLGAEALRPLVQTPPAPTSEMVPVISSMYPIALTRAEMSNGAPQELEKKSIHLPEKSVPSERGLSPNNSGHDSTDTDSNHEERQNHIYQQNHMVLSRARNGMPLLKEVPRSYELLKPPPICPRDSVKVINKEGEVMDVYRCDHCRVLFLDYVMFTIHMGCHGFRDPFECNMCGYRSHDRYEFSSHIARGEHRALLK
T1 sequence (Q96SW2 whole entry): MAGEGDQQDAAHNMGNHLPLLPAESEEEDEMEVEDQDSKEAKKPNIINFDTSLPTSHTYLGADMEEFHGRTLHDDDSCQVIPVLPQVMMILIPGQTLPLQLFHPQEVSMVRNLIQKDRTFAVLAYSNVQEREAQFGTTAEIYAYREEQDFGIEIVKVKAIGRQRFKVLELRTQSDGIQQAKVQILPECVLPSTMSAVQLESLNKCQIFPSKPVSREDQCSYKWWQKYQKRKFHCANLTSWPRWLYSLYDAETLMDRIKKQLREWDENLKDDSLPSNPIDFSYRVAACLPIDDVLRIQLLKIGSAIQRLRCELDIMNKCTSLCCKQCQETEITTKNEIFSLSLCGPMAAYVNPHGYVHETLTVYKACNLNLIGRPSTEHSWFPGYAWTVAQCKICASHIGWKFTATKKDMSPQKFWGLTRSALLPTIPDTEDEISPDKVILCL
T1 sequence (Q16531 2-1140 partner limits assumed): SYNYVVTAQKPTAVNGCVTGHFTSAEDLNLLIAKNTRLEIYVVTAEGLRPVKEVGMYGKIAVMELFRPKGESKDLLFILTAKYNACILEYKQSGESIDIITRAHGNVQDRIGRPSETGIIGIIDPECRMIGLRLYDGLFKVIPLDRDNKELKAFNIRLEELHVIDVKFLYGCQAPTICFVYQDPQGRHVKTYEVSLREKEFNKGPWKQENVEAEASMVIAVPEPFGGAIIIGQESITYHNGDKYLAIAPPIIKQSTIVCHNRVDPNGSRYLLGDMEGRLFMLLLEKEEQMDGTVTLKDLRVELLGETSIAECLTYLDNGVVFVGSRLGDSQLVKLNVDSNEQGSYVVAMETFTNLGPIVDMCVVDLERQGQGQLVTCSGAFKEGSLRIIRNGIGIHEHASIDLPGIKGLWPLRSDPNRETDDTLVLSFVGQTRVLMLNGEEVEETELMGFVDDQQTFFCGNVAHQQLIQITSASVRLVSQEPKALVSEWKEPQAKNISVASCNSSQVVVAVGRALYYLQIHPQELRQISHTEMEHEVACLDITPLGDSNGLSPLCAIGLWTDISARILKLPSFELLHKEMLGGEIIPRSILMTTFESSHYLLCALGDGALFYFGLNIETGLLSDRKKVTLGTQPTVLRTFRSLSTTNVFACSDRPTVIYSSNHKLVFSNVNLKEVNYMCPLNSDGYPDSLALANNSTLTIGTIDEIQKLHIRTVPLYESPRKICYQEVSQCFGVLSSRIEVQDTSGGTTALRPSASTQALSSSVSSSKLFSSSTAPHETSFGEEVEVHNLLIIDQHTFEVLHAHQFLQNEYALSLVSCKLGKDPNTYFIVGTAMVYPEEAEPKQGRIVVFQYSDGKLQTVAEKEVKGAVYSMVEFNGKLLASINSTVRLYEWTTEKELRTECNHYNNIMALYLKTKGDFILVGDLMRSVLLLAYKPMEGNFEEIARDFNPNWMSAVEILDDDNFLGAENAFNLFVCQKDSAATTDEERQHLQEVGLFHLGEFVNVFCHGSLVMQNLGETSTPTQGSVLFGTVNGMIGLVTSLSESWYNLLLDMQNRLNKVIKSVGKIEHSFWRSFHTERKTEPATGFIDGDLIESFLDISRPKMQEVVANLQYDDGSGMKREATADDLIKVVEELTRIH

## O=C1CC[C@H](N2C(=O)c3cccc4c(Cc5ccc(CN6CCOCC6)cc5)ccc2c34)C(=O)N1 (single isomer, unassigned) [Compound 1]
NCIH929.1 cells
  GI50: 0.0743 nM
[1]; 4 Hour
  Log2 FC vs Vehicle, IKZF1: −2.466
  Log2 FC vs Vehicle, IKZF3: −2.006
[1]; 24 Hour
  Log2 FC vs Vehicle, ACTA1: −1.089
  Log2 FC vs Vehicle, ACTN2: −1.304
  Log2 FC vs Vehicle, AK1: −1.041
  Log2 FC vs Vehicle, APOBEC2: −1.355
  Log2 FC vs Vehicle, ATP2A1: −1.427
  Log2 FC vs Vehicle, CASQ1: −1.333
  Log2 FC vs Vehicle, CKM: −1.248
  Log2 FC vs Vehicle, CKMT2: −1.544
  Log2 FC vs Vehicle, FHL1: −1.311
  Log2 FC vs Vehicle, IKZF1: −2.515
  Log2 FC vs Vehicle, IKZF3: −1.761
  Log2 FC vs Vehicle, JPH2: −1.117
  Log2 FC vs Vehicle, KLHL41: −1.142
  Log2 FC vs Vehicle, LDB3: −1.136
  Log2 FC vs Vehicle, MYBPC1: −1.366
  Log2 FC vs Vehicle, MYBPC2: −1.146
  Log2 FC vs Vehicle, MYH1: −1.258
  Log2 FC vs Vehicle, MYH2: −1.188
  Log2 FC vs Vehicle, MYH3: −1.165
  Log2 FC vs Vehicle, MYH4: −1.05
  Log2 FC vs Vehicle, MYH7: −2.977
  Log2 FC vs Vehicle, MYH7B: −1.231
  Log2 FC vs Vehicle, MYH13: −1.102
  Log2 FC vs Vehicle, MYL1: −1.3
  Log2 FC vs Vehicle, MYL4: −1.344
  Log2 FC vs Vehicle, MYLPF: −1.434
  Log2 FC vs Vehicle, MYOM1: −1.201
  Log2 FC vs Vehicle, NEB: −1.184
  Log2 FC vs Vehicle, OAS1: 1.172
  Log2 FC vs Vehicle, PVALB: −1.105
  Log2 FC vs Vehicle, PYGM: −1.139
  Log2 FC vs Vehicle, SPR: 1.088
  Log2 FC vs Vehicle, SRL: −1.252
  Log2 FC vs Vehicle, TNNC2: −1.035
  Log2 FC vs Vehicle, TNNI2: −1.377
  Log2 FC vs Vehicle, TPM1: −1.146
  Log2 FC vs Vehicle, TRIM72: −1.083
  Log2 FC vs Vehicle, TTN: −1.117
  Log2 FC vs Vehicle, ZFP91: −1.279
[1]; 4 hours
  fold change, IKZF1 downregulated: 5.5
  fold change, IKZF3 downregulated: 4.1
[1]; 4 hours post a single dose of 100 μg/kg, >7900 proteins detected
  selectivity, proteins degraded: degrading only IKZF1/3
[2]
  IC50: 30 nM
IKZF1/3
  degradation of both IKZF1/3: > 75%
  duration of IKZF1/3 degradation: 24 h
IKZF3; NCI-H929 tumor model, single dose
  time for the IKZF3 level to reach 50% of its pretreatment level: more than 48 hours
IKZF3; dosed at a 10-fold lower dose than CC-92480
  duration of plasma and tumor concentrations: measurable plasma and tumor concentrations for longer than CC-92480
H929
  IC50: 0.073 nM
[3]; 3 μg/kg PO QD
  Statistical Significance Compared to Vehicle: 0.04
[3]; 10 μg/kg PO QD
  Statistical Significance Compared to Vehicle: 0.0002
[3]; 30 μg/kg PO QD
  Statistical Significance Compared to Vehicle: 0.0004
[3]; 100 μg/kg PO QD
  Statistical Significance Compared to Vehicle: 0.0004
[3]; 3, 10, 30 and 100 μg/kg, NCI-H929 and RPMI-8226
  tumor volume versus pomalidomide 3000 μg/kg: reduced tumor volume more than pomalidomide
